The NIST ThermoML archive (doi:10.1016/j.jct.2013.10.023)

Legend:
[1] = 101 kPa, Liquid; for viscosity: Capillary tube (Ostwald / Ubbelohde) method; for mass density: Vibrating tube method
[2] = xn = mol fraction of the nth substance listed; details: 101 kPa, Liquid, x2 = 0; for viscosity: Capillary tube (Ostwald / Ubbelohde) method; for mass density: Vibrating tube method

CC(=O)[O-].CCn1cc[n+](C)c1 [1-ethyl-3-methylimidazolium acetate]
[1]
Details	mass density [kg/m3]	viscosity [mPa·s]
298.15 K	1099.04	138.4
308.15 K	1092.95	76.1
318.15 K	1086.88	45.9
328.15 K	1080.86	30.1
338.15 K	1074.86	20.8
348.15 K	1071.37	14.28
358.15 K	1063.03	11.53

CCOS(=O)(=O)[O-].CCn1cc[n+](C)c1 [1-ethyl-3-methylimidazolium ethyl sulfate] + CC(=O)[O-].CCn1cc[n+](C)c1
[2]
Details	mass density [kg/m3]	viscosity [mPa·s]
298.15 K	1238.68	96.62
308.15 K	1231.92	60.41
318.15 K	1225.2	39.95
328.15 K	1218.51	28.91
338.15 K	1211.88	20.63
348.15 K	1208.19	15.66
358.15 K	1198.75	12.23

CCOS(=O)(=O)[O-].CCn1cc[n+](C)c1 [1-ethyl-3-methylimidazolium ethyl sulfate]
[1]
Details	mass density [kg/m3]	viscosity [mPa·s]
298.15 K	1238.68	96.62
308.15 K	1231.92	60.41
318.15 K	1225.2	39.95
328.15 K	1218.51	28.91
338.15 K	1211.88	20.63
348.15 K	1208.19	15.66
358.15 K	1198.75	12.23
